Source: patent publication US9211310B2, “Use of a Chinese medicine composition in preparing medicaments for treating secondary prevention of myocardial infarction” (TASLY PHARMACEUTICAL GROUP CO., LTD, priority 2010, dated 2015)

Tested on: patients after acute myocardial infarction
Experiment: TCM symptom score, total and single (chest pain, chest tightness, short breath, fatigue, palpitation, spontaneous perspiration, pale complexion), same clinical trial
Format: in vivo, human
Design: total score of TCM symptom, Mean / total score of TCM symptom, Min / total score of TCM symptom, Max / total score of TCM symptom, Md / change of total score of TCM symptom, Mean / change of total score of TCM symptom, Max / change of total score of TCM symptom, Md: scale not given here
From the text: 3508 patients who were in accordance with the diagnostic standards of AMI for 28 days to 2 years and differentiated as Qi deficiency and blood stagnation syndrome by TCM were studied. 0.5 g Chinese medicine composition prepared by the method of EXAMPLE 1 (Coded as QSYQ) was administrated half an hour after meal, 3 times per day.
They included the overall survival time, angina pectoris score, TCM symptom score and life quality score, where angina pectoris score, TCM symptom score and life quality score were evaluated at randomization, in 1st, 3rd, 6th, 9th, 12th month after treatment and 18th month after follow-up.
The analysis method referred to the angina pectoris score.

[1] = PP, 12 months after treatment-treatment
[2] = PP, 1 month after treatment-baseline

CC(=O)Oc1ccccc1C(=O)O [Control group, aspirine]
chest tightness score 2, percent of patients (Follow-up, FAS): (0.07%) | chest tightness score 3, number of patients (Follow-up, FAS): 479 | chest tightness score 3, percent of patients (Follow-up, FAS): (33.57%) | chest tightness score 6, number of patients (Follow-up, FAS): 192 | chest tightness score 6, percent of patients (Follow-up, FAS): (13.45%) | chest tightness score 9, number of patients (Follow-up, FAS): 1 | chest tightness score 9, percent of patients (Follow-up, FAS): (0.07%) | chest pain score 0, number of patients (Follow-up, PP): 733 | chest pain score 0, percent of patients (Follow-up, PP): (52.62%) | chest pain score 2, number of patients (Follow-up, PP): 1 | chest pain score 2, percent of patients (Follow-up, PP): (0.07%) | chest pain score 3, number of patients (Follow-up, PP): 472 | chest pain score 3, percent of patients (Follow-up, PP): (33.88%) | chest pain score 6, number of patients (Follow-up, PP): 186 | chest pain score 6, percent of patients (Follow-up, PP): (13.35%) | chest pain score 9, number of patients (Follow-up, PP): 1 | chest pain score 9, percent of patients (Follow-up, PP): (0.07%) | chest tightness score 0, number of patients (Follow-up, PP): 733 | chest tightness score 0, percent of patients (Follow-up, PP): (52.62%) | chest tightness score 2, number of patients (Follow-up, PP): 1 | chest tightness score 2, percent of patients (Follow-up, PP): (0.07%) | chest tightness score 3, number of patients (Follow-up, PP): 472 | chest tightness score 3, percent of patients (Follow-up, PP): (33.88%) | chest tightness score 6, number of patients (Follow-up, PP): 186 | chest tightness score 6, percent of patients (Follow-up, PP): (13.35%) | chest tightness score 9, number of patients (Follow-up, PP): 1 | chest tightness score 9, percent of patients (Follow-up, PP): (0.07%) | change of short breath 0, % of patients [1]: (53.11%) | change of short breath 2, % of patients [1]: (36.17%) | change of short breath 2, number of patients [1]: 506 | change of short breath 4, % of patients [1]: (4.50%) | change of short breath 4, number of patients [1]: 63 | change of short breath 6, % of patients [1]: (0.79%) | change of short breath 6, number of patients [1]: 11 | change of short breath −2, % of patients [1]: (5.36%) | change of short breath −2, number of patients [1]: 75 | change of short breath −4, % of patients [1]: (0.07%) | change of short breath −4, number of patients [1]: 1 | distribution of total score of TCM symptom: Medium, number of patients (PP, 1 month after treatment): 600 | distribution of total score of TCM symptom: Medium, percentage of patients (PP, 1 month after treatment): (41.04%) | distribution of total score of TCM symptom: Mild, number of patients (PP, 1 month after treatment): 847 | distribution of total score of TCM symptom: Mild, percentage of patients (PP, 1 month after treatment): (57.93%) | distribution of total score of TCM symptom: Severe, number of patients (PP, 1 month after treatment): 15 | distribution of total score of TCM symptom: Severe, percentage of patients (PP, 1 month after treatment): (1.03%) | fatigue score 0, % of patients (PP, 1 month after treatment): (23.62%) | fatigue score 0, number of patients (PP, 1 month after treatment): 346 | fatigue score 2, % of patients (PP, 1 month after treatment): (60.75%) | fatigue score 2, number of patients (PP, 1 month after treatment): 890 | fatigue score 4, % of patients (PP, 1 month after treatment): (14.40%) | fatigue score 4, number of patients (PP, 1 month after treatment): 211 | fatigue score 6, % of patients (PP, 1 month after treatment): (1.23%) | fatigue score 6, number of patients (PP, 1 month after treatment): 18 | pale complexion score 0, number of patients (PP, 1 month after treatment): 613 | pale complexion score 0, percent of patients (PP, 1 month after treatment): (41.81%) | pale complexion score 1, number of patients (PP, 1 month after treatment): 615 | pale complexion score 1, percent of patients (PP, 1 month after treatment): (41.95%) | pale complexion score 2, number of patients (PP, 1 month after treatment): 211 | pale complexion score 2, percent of patients (PP, 1 month after treatment): (14.39%) | pale complexion score 3, number of patients (PP, 1 month after treatment): 27 | pale complexion score 3, percent of patients (PP, 1 month after treatment): (1.84%) | palpitation score 0, number of patients (PP, 1 month after treatment): 353 | palpitation score 0, percent of patients (PP, 1 month after treatment): (24.11%) | palpitation score 1, number of patients (PP, 1 month after treatment): 1 | palpitation score 1, percent of patients (PP, 1 month after treatment): (0.07%) | palpitation score 2, number of patients (PP, 1 month after treatment): 713 | palpitation score 2, percent of patients (PP, 1 month after treatment): (48.70%) | palpitation score 4, number of patients (PP, 1 month after treatment): 351 | palpitation score 4, percent of patients (PP, 1 month after treatment): (23.98%) | palpitation score 6, number of patients (PP, 1 month after treatment): 46 | palpitation score 6, percent of patients (PP, 1 month after treatment): (3.14%) | short breath score 0, % of patients (PP, 1 month after treatment): (20.68%) | short breath score 0, number of patients (PP, 1 month after treatment): 303 | short breath score 3, % of patients (PP, 1 month after treatment): (53.72%) | short breath score 3, number of patients (PP, 1 month after treatment): 787 | short breath score 6, % of patients (PP, 1 month after treatment): (24.91%) | short breath score 6, number of patients (PP, 1 month after treatment): 365 | short breath score 9, % of patients (PP, 1 month after treatment): (0.68%) | short breath score 9, number of patients (PP, 1 month after treatment): 10 | spontaneous perspiration score 0, number of patients (PP, 1 month after treatment): 518 | spontaneous perspiration score 0, percent of patients (PP, 1 month after treatment): (35.36%) | spontaneous perspiration score 1, number of patients (PP, 1 month after treatment): 738 | spontaneous perspiration score 1, percent of patients (PP, 1 month after treatment): (50.38%) | spontaneous perspiration score 2, number of patients (PP, 1 month after treatment): 195 | spontaneous perspiration score 2, percent of patients (PP, 1 month after treatment): (13.31%) | spontaneous perspiration score 3, number of patients (PP, 1 month after treatment): 14 | spontaneous perspiration score 3, percent of patients (PP, 1 month after treatment): (0.96%) | total score of TCM symptom, Max (PP, 1 month after treatment): 34.00 | total score of TCM symptom, Md (PP, 1 month after treatment): 11.00 | total score of TCM symptom, Mean (PP, 1 month after treatment): 11.93 | total score of TCM symptom, Min (PP, 1 month after treatment): 0.00 | change of fatigue 0, % of patients [2]: (72.24%) | change of fatigue 0, number of patients [2]: 1054 | change of fatigue 1, % of patients [2]: (0.07%) | change of fatigue 1, number of patients [2]: 1 | change of fatigue 2, % of patients [2]: (17.82%) | change of fatigue 2, number of patients [2]: 260 | change of fatigue 4, % of patients [2]: (2.40%) | change of fatigue 4, number of patients [2]: 35 | change of fatigue 6, % of patients [2]: (0.82%) | change of fatigue 6, number of patients [2]: 12 | change of fatigue −2, % of patients [2]: (5.96%) | change of fatigue −2, number of patients [2]: 87 | change of fatigue −4, % of patients [2]: (0.62%) | change of fatigue −4, number of patients [2]: 9 | change of fatigue −6, % of patients [2]: (0.07%) | change of fatigue −6, number of patients [2]: 1 | change of pale complexion 0, number of patients [2]: 1275 | change of pale complexion 0, percent of patients [2]: (87.45%) | change of pale complexion 1, number of patients [2]: 131 | change of pale complexion 1, percent of patients [2]: (8.98%) | change of pale complexion −1, number of patients [2]: 52 | change of pale complexion −1, percent of patients [2]: (3.57%) | change of palpitation 0, number of patients [2]: 1051 | change of palpitation 0, percent of patients [2]: (71.99%) | change of palpitation 1, number of patients [2]: 295 | change of palpitation 1, percent of patients [2]: (20.21%) | change of palpitation 2, number of patients [2]: 22 | change of palpitation 2, percent of patients [2]: (1.51%) | change of palpitation 3, number of patients [2]: 4 | change of palpitation 3, percent of patients [2]: (0.27%) | change of palpitation −1, number of patients [2]: 87 | change of palpitation −1, percent of patients [2]: (5.96%) | change of palpitation −2, number of patients [2]: 1 | change of palpitation −2, percent of patients [2]: (0.07%)
